For assay [1], the system named is cerebellar granule cells. The assay is described as follows: Protective effect on exogenous glutamate induced neurotoxicity, pretreatment, MTT test. Format: cell-based, Sprague-Dawley rats. The conditions noted are these: glutamate 100 μM, 2 hours pretreatment.
Protocol: Primary cell cultures of cerebellar granule Cells were prepared from 6 day old Sprague-Dawley rats. Neurons were grown in 35 mm plates for 11-13 days and maintained in a humid environment (95% air and 5% CO2). Cultures (3×10^6 cells/plate) are mainly formed by granule cells (95%) with a small amount (5%) of glial cells (Gallo V. et al.: Selective release of glutamate from cerebellar granule cells differentiating in culture. Proc. Natl. Acad. Sci. USA 79, 7919-23, 1982). Glial proliferation was prevented by arabinofuranoside cytosine.
Derivative ND37 was solubilized at a concentration of 1×10^-2 M in dimethylsulfoxide (1% DMSO) and then diluted at various concentrations in Locke's solution (154 mM NaCl/1/5.6 mM KCl/3.6 mM NaHCO3 /2.3 mM CaCl2 /1 mM MgCl2 /5.6 mM glucose/5 mM HEPES, pH 7.4). The following concentrations were tested: 5×10^-6 M, 1×10^-5 M, and 2×10^-5 M.
The cell culture medium was aspirated from the plates (and correctly maintained). Plates were washed (3×2 ml) with Locke's solution, and solutions (1.5 ml) containing the compound to be tested (concentrations from 5×10^-6 M to 2×10^-5 M) were added and incubated for 2 hours in an incubator at 37° C. (5% CO2).
Treated cells were washed (3×2 ml) with Locke's solution+10% fetal calf serum, then washed (3×2 ml) with Locke's solution without Mg^++. 100 μM glutamate (1.5 ml) in Locke's solution (-Mg^++) or culture medium (controls) were added. Incubation with glutamate was performed for 15 minutes at room temperature (27° C.). Glutamate was removed, the plates were washed with Locke's solution (2×2 ml), and then incubated in presence of the starting medium (correctly maintained) for 24 hours at 37° C. in an incubator (5% C2 O). At the end of the incubation, cellular viability was assayed via quantification by the MTT colorimetric test (Mosmann T.: Rapid colorimetric assay for cellular growth and survival: application to proliferation and cytotoxicity assays. J. Immunol. Meth. 65, 55: 63, 1983 and modified according to Skaper S. D. et al.: Death of cultured hippocampal pyramidal neurons induced by pathological activation of N-methyl-D-aspartate receptors is reduced by monosialogangliosides. J. Pharm. Exp. Ter. 259,1 452-457, 1991). Data are expressed as % survival. The significance was calculated according to the Dunnett test.
Assay [2] has as its system cerebellar granule cells. Put plainly: Protective effect on exogenous glutamate-induced neurotoxicity during cotreatment, FDA/PI test. Type of assay: cell-based, rats. The conditions noted are these: Rattus norvegicus, 24 h, glutamate 50 μM cotreatment, read-out: % surviving cells N = 4 (average + s.e.) FDA/PI test.
Protocol: Primary cerebellar granule cells were prepared from 8 day old rats (Zivic Miller, Pittsburgh, Pa, USA). […] Glial proliferation was prevented by arabinofuranoside cytosine.
The following concentrations were tested: 5×10^-6 M, 1×10^-5 M, and 2×10^5 M.
The cell culture medium was aspirated from the plates (and correctly maintained). Plates were washed (3×2 ml) with Locke's solution without Mg^++, and solutions (1.5 ml) containing the compound to be tested (concentrations from 5×10^6 M to 2×10^5 M) were added and incubated for 2 hours in an incubator at 37° C. (5% CO2).
Treated cells were washed (3×2 ml) with Locke's solution+10% fetal calf serum, then washed (3×2 ml) with Locke's solution without Mg^++. 1.5 ml of Locke's solution (-Mg^++) or 50 μM of glutamate±the test compound (concentrations between 1 and 4×10^-5 M) in 1.5 ml of Locke's solution (-M^++) were added. The incubation was conducted for 15 minutes (37° C.). Glutamate and the compound were removed. The plates were washed with Locke's solution (2×2 ml), and then incubated in the presence of the starting medium (correctly maintained) for 24 hours at 37° C. in an incubator (5% CO2). […] The stained cells where immediately analyzed using a standard fluorescence microscope for epiillumination (Vanox Olympus, 450 nm excitation, 520 nm emission). FDA, a non polar ester, crosses cell membranes and is hydrolyzed by intracellular esterases with the consequent production of a yellow greenish color.
After glutamate treatment, some neurons can degenerate and detach from the plates. The loss of cells was estimated by comparing the number of intact or degenerated neurons in a well defined field, which was photographed before and after 24 hours after application of glutamate. The percent of surviving neurons in 4 representative fields (magnification 40×) of each monolayer was determined by a researcher unaware of the experimental conditions, evaluating the FDA/PI color, and calculating it as follows: [formula]
Data are expressed as % of surviving cells. Significance was calculated using the Dunnett's test.
Assay [3] relates to neonatal rats. The assay is described as follows: Cerebral damage induced by icv injection of N-methyl-D-aspartate, total brain weight. Type of assay: in vivo. The conditions noted are these: for Total brain weight: NMDA 25 nmoles icv, 1 hour before and immediately after NMDA, day 12. On the procedure:
Experiments were performed on 7 day old neonatal rats weighing ca. 13 grams. […] The excitotoxin was solubilized in saline, and the pH was brought to 7.4 by adding 1N NaOH. The NMDA injection (25 nmoles/μl) was performed slowly (2 minutes) at the level of the right lateral ventricle utilizing a Hamilton syringe. Saline was administered to control animals (1 μl icv).
The compound was administered subcutaneously (sc) after suspension in 1% DMSO (experiment No. 1) or in 0.5% tragacanth (experiment No. 2). The compound was tested at the following doses: 1-3-5 mg/kg sc.
The treatment was conducted performing two administrations:
1 hour before NMDA injection;
immediately after NMDA injection.
The number of animals utilized in each experimental group (corresponding to the total number of animals, i.e., experiment 1+experiment 2, according to Table 3) is indicated in brackets.
Animals were sacrificed on the 12th day (i.e., 5 days after NMDA injection) for the evaluation of the in toto brain weight, defined in mg.
The statistical significance was evaluated using Dunnett's test.

Assay [4] deals with glutamate-activated cationic channels (cerebellar granule neurons). Put plainly: Single channel current registration of glutamate-activated cationic channels. Type of assay: cell-based, rats. On the procedure: (§1) Primary cell cultures of cerebellar granule cells were prepared from 8 day old rats (Zivic Miller, Pittsburgh, Pa, USA).
(§2) Neurons were grown on 35 mm plates for 7-8 days and maintained in a humid environment (95% air and 5% CO2). Cultures (2.5×10^6 cells/plate) were mainly formed by granule cells (95%), with a small amount (5%) of glial cells (Gallo V. et al.: Selective release of glutamate from cerebellar granule cells differentiating in culture. Proc. Natl. Acad. Sci. USA 79, 7919-23, 1982). Glial proliferation was prevented by arabinofuranoside cytosine.
Derivative ND37 was solubilized at a concentration of 1×10^-2 M in dimethylsulfoxide (1% DMSO), and then diluted at various concentrations in Locke's solution (-Mg^++) (154 mM NaCl/5.6 mM KCl/3.6 mM NaHCO3 /2.3 mM CaCl2 /5.6 mM glucose/5 mM HEPES, pH 7.4). ND37 was analyzed at concentrations of 20 and 30 μM.
Experiments were performed at room temperature utilizing the following medium 145 mM NaCl, 1 mM CaCl2, 5 mM glucose, and 5 mM HEPES/NaOH at pH 7.4, and patch pipettes, close to the preparation, containing 145 mM CsCl2, 1 mM CaCl2, 11 mM ethyleneglycol (β-aminoethyl ether) bis N,N'-tetraacetic acid, 10 mM HEPES/Cs(OH)2 at pH 7.2. Plates were continually perfused at a flow rate of 1 ml/min.
b) The activation by glutamate of single channels was externally recorded on membrane portions prepared from cerebellar granule cells pretreated with ND37 for 30 minutes at 37° C. Micropipettes, filled (1 μM) with glutamate, were positioned close to the membrane portions and were also utilized in order to drip the neurotransmitter. Single channel currents were registered according to the method described by Bertolini and Vicini ("Voltage-dependent block by strychnine of N-methyl-D-aspartic acid-activated cationic channels in rat cortical neurons in culture", Mol. Pharmacol. 34, 98-103, 1988).

In assay [5] the test system is cerebellar granule cells and cortical neurons. The assay is described as follows: Whole cell registration of glutamate-activated inward currents. Format: cell-based, rats. The conditions noted are these: glutamate 50 μM given contemporaneously with ND37 30 μM; absence of Mg++. As to the method:
as §1, §2
Primary cell cultures of cortical neurons were prepared from one day old neonatal […] (Zivic Miller, Pittsburgh, Pa., USA) (Bertolino and Vicini: Mol. Pharmacol. 34, 98-103, 1988).
Cultures were grown on 35 mm plates, to which was added 10 μg/ml of poly-L-lysine, at a density of 5×10^5 cortical neurons/plate. Cultures were prepared on basal Eagle medium (Gibco) containing 10% fetal calf serum (Gibco), 25 mM KCl, 2 mM glutamine, and 100 μg/ml gentamycine. […]
Derivative ND37 was solubilized at a concentration of 1×10^-2 M in dimethylsulfoxide (1% DMSO), and then diluted at various concentrations in Locke's solution (-Mg^++) (154 mM NaCl/5.6 mM KCl/3.6 mM NaHCO3 /2.3 mM CaCl2 /5.6 mM glucose/5 mM HEPES, pH 7.4). ND37 was analyzed at concentrations of 20 and 30 μM. […]

[6] abbreviates: Glutamate (1 mM) + ND37 (20 uM), 30 minutes pretreatment, n = 10.

“Also recorded” adds a separate entry of the source.

Take `CCCCCCCCCCCCCCCC(=O)NC1C(O)CC(OCC)(C(=O)N(C)C)OC1C(O)C(O)CO` (stereo not drawn) [ND37, β-2-O-ethylglycoside of the dimethylamide of N-palmitoylneuraminic acid]: the viability at 10 µM in assay [1] (Rattus norvegicus, ND37 1 × 10^-5 M, read-out: % survival) was approximately 63%; in assay [2] (ND37 1 × 10^-5 M), 34 ± 2%. For the same molecule, the viability at 20 µM is approximately 83% in assay [1] (Rattus norvegicus, ND37 2 × 10^-5 M, read-out: % survival) and 70 ± 6% in assay [2] (ND37 2 × 10^-5 M). Besides, in assay [1] (Rattus norvegicus, ND37 5 × 10^-6 M, read-out: % survival), the viability at 5 µM worked out at 37 ± 5%. Besides, the figures for the MTT values in assay [1] (ND37 1 × 10^-5 M), in assay [1] (ND37 2 × 10^-5 M) and in assay [1] (ND37 5 × 10^-6 M) were 0.123 ± 0.006, 0.326 ± 0.016 and 0.110 ± 0.015, respectively. The viability at 40 µM in assay [2] (ND37 4 × 10^-5 M) worked out at 88 ± 4.5%. In addition, in assay [3] (1 mg/kg sc, p<0.01), the “efficacy against NMDA brain damage” value is listed as “significatively effective”. Further, in assay [3] (1-3-5 mg/kg sc), the “reduction of brain damage induced by the excitotoxin (lowering of total brain weight)” value is “effective in reducing the brain damage”. Further, the Total brain weight in assay [3] (Experiment n.1 (vehicle = DMSO 1%), 1 mg/kg sc) was 960 mg; in assay [3] (Experiment n.1 (vehicle = DMSO 1%), 3 mg/kg sc), 968 mg; in assay [3] (Experiment n.1 (vehicle = DMSO 1%), 5 mg/kg sc) it was 959 mg; in assay [3] (Experiment n.2 (0.5% tragacanth), 1 mg/kg sc) it was 1019 mg; in assay [3] (Experiment n.2 (0.5% tragacanth), 3 mg/kg sc), 977 mg; in assay [3] (Experiment n.2 (0.5% tragacanth), 5 mg/kg sc) it was 976 mg. Besides, the Channel conductivity in assay [4] (setting [6]) turned out to be 50 ps. Further, the Opening frequence in assay [4] (setting [6]) amounted to 4.1 ± 2.1 opening/sec. In addition, the “effect on channel conductivity and frequency of opening” value in assay [4] (pretreatment 30 minutes with 20 μM ND37) is “does not influence”. For the same molecule, the “inside currents activated by glutamate (whole cell response)” value in assay [5] was “does not influence the control response; also recorded: not different”.

The values above are taken from patent US5677285A, “Derivatives of neuraminic acid” (Fidia S.P.A., priority 1992, dated 1997).
